Results as given in ChEMBL document CHEMBL6071212, “Studies of Structure-Activity Relationship of 2-(Pyrrolidin-1ylmethyl)-1H-pyrrole-Based ST2 Inhibitors and Their Inhibition of Mast Cells Activation” (ACS Med Chem Lett, 2024).
Activity calls are given as the source filed them. No cut-off for these calls is given here.

Experiments:
[1] = Inhibition of ST2/IL-33 (unknown origin) by AlphaLISA assay; parameters: species or system Homo sapiens
[2] = Inhibition of ST2/IL-33 (unknown origin) expressed in HEK-Blue IL-33 cells assessed as decrease in NF-kappaB […]; type: cell-based; conditions: Homo sapiens
[3] = Metabolic stability in mouse liver microsomes assessed as half life; type: ADME, Microsome
LAD2 [4] = experiment: Inhibition of IL-1beta secretion in IL-33/substance P-stimulated human LAD2 cells incubated for 24 hrs followed by 48/80 addition measured after 30 mins by ELISA; type: functional, cell-based; conditions: dose 10-30 µM, time 24.5 hrs
LAD2 [5] = experiment: Inhibition of IL-1beta secretion in IL-33/substance P-stimulated human LAD2 cells at 50 uM incubated for 24 hrs followed by 48/80 addition measured after 30 mins by ELISA; type: functional, cell-based
LAD2 [6] = experiment: Inhibition of ST2 in IL-33-stimulated human LAD2 cells assessed as residual activity at 30 uM incubated for 24 hrs by flow cytometry (reference value: 24.18 %); type: cell-based

| Structure (SMILES) | IC50 [1] | IC50 [2] | also measured |
| --- | --- | --- | --- |
| Cc1cc(-c2ccc(CN3CCCC3c3cccc(N4CCCC4)c3)[nH]2)ccc1[N+](=O)[O-] (configuration not stated) | 7.74 µM | 12.1 µM |  |
| CN(C)c1ccc(C2CCCN2Cc2cnc(-c3ccc([N+](=O)[O-])cc3)[nH]2)cc1 (configuration not stated) | 24 µM |  |  |
| CN(C)c1ccc(C2COCCN2Cc2ccc(-c3ccc4c(c3)OCO4)[nH]2)cc1 (configuration not stated) | 12.9 µM | 10.2 µM |  |
| Cc1cc([N+](=O)[O-])ccc1-c1ccc(CN2CCCC2c2ccc(N(C)C)cc2)[nH]1 (configuration not stated) | 17.9 µM | 7.26 µM |  |
| Cc1cc([N+](=O)[O-])ccc1-c1ccc(CN2CCCC2c2ccc(N(C)C)cc2)o1 (configuration not stated) | 7.77 µM | 52.5 µM | half-life [3]: 3.64 min |
| CN(C)c1ccc(C2CCCN2Cc2ccc(-c3ccc([N+](=O)[O-])c(C(N)=O)c3)[nH]2)cc1 (configuration not stated) | 37.1 µM |  |  |
| CN(C)c1ccc(C2CCCCN2Cc2ccc(-c3ccc([N+](=O)[O-])cc3)[nH]2)cc1 (configuration not stated) | 16.2 µM | 8.47 µM |  |
| Cc1cc(-c2ccc(CN3CCCC3c3cccc(N(C)C)c3)[nH]2)ccc1[N+](=O)[O-] (configuration not stated) | 10 µM |  |  |
| CN(C)c1ccc(C2CCCN2Cc2c[nH]c(-c3ccc([N+](=O)[O-])cc3)c2)cc1 (configuration not stated) | 17.9 µM |  |  |
| COc1cc(OC)c2c(=O)cc(-c3ccc(OC)c(OC)c3)oc2c1 |  |  | inhibition (LAD2 [5]): Active |
| CN(C)c1ccc(C2CCCN2Cc2ccc(-c3ccc([N+](=O)[O-])c(CO)c3)[nH]2)cc1 (configuration not stated) | 20.3 µM |  |  |
| COC(=O)c1cc(-c2ccc(CN3CCCC3c3ccc(N(C)C)cc3)[nH]2)ccc1[N+](=O)[O-] (configuration not stated) | 8.1 µM | 6.52 µM | half-life [3]: 2.2 min |
| Cc1cc(-c2ccc(CN3CCCC3c3ccc(N4CCCC4)cc3)[nH]2)ccc1[N+](=O)[O-] (configuration not stated) | 7.48 µM | 11 µM | half-life [3]: 4.59 min |
| Cc1cc(-c2ccc(CN3CCCC3c3cccc(N4CCC(O)C4)c3)[nH]2)ccc1[N+](=O)[O-] (configuration not stated) | 53.5 µM |  |  |
| CN(C)c1ccc(C2CCCN2Cc2ccc(-c3ccc([N+](=O)[O-])cc3)s2)cc1 (configuration not stated) | 14.1 µM |  |  |
| Cc1cc(-c2ccc(CN3CCCC3c3cccc(N[C@@H]4CCOC4)c3)[nH]2)ccc1[N+](=O)[O-] (some centres not stated) | 75.6 µM |  |  |
| CN(C)c1ccc(C2SCCN2Cc2ccc(-c3ccc([N+](=O)[O-])cc3)[nH]2)cc1 (configuration not stated) | 26.9 µM | 17.8 µM |  |
| CN(C)c1ccc(C2CCCN2Cc2cc(-c3ccc([N+](=O)[O-])cc3)[nH]n2)cc1 (configuration not stated) | > 100 µM |  |  |
| CN(C)c1ccc(C2CCCN2Cc2ccc(-c3ccc([N+](=O)[O-])cc3)n2C)cc1 (configuration not stated) | 10.7 µM |  |  |
| CN(C)c1ccc(C2CCCN2Cc2ncc(-c3ccc([N+](=O)[O-])cc3)[nH]2)cc1 (configuration not stated) | 17.7 µM |  |  |
| CN(C)c1ccc(C2CCCN2Cc2ccc(-c3ccc(C(N)=O)cc3)[nH]2)cc1 (configuration not stated) | 79.6 µM |  |  |
| CC(C)Oc1cc(-c2ccc(CN3CCCC3c3ccc(N(C)C)cc3)[nH]2)ccc1[N+](=O)[O-] (configuration not stated) | 15.6 µM | 10.2 µM | half-life [3]: 1.91 min |
| COc1cc(-c2ccc(CN3CCCC3c3ccc(N(C)C)cc3)[nH]2)ccc1[N+](=O)[O-] (configuration not stated) | 12.2 µM | 7.15 µM | half-life [3]: 7.8 min; Activity (LAD2 [6]): 19.8% |
| Cc1cc(-c2ccc(CN3CCCC3c3cccc(N4CCC4)c3)[nH]2)ccc1[N+](=O)[O-] (configuration not stated) | 14.7 µM |  |  |
| Cc1ccc([N+](=O)[O-])c(-c2ccc(CN3CCCC3c3ccc(N(C)C)cc3)[nH]2)c1 (configuration not stated) | 12.1 µM | 10.6 µM |  |
| Cc1ccc(-c2ccc(CN3CCCC3c3ccc(N(C)C)cc3)[nH]2)c([N+](=O)[O-])c1 (configuration not stated) | 20 µM | 10.3 µM |  |

The next lines start with results.

| IC50 [1] | IC50 [2] | Structure (SMILES) | also measured |
| --- | --- | --- | --- |
| 56.2 µM |  | Cc1cc(-c2ccc(CN3CCCC3c3cccc(N[C@H]4CCOC4)c3)[nH]2)ccc1[N+](=O)[O-] (some centres not stated) |  |
| 46.9 µM |  | CCNC(=O)c1cc(-c2ccc(CN3CCCC3c3ccc(N(C)C)cc3)[nH]2)ccc1[N+](=O)[O-] (configuration not stated) |  |
| 13 µM | 16.2 µM | CN(C)c1ccc(C2CCCN2Cc2ccc(-c3ccc([N+](=O)[O-])cc3)[nH]2)cc1 (configuration not stated) |  |
| 7 µM | 7.19 µM | CN(C)c1ccc(C2CCCN2Cc2ccc(-c3ccc([N+](=O)[O-])c(N4CCCC4)c3)[nH]2)cc1 (configuration not stated) | half-life [3]: 1.47 min; inhibition (LAD2 [4]): Dose-Dependent Effect |
| 17.4 µM |  | CN(C)c1ccc(C2CCCN2Cc2ccc(-c3ccc([N+](=O)[O-])cc3)o2)cc1 (configuration not stated) |  |
| 25 µM |  | CN(C)C(=O)c1cc(-c2ccc(CN3CCCC3c3ccc(N(C)C)cc3)[nH]2)ccc1[N+](=O)[O-] (configuration not stated) |  |
| 8.12 µM | 9.57 µM | Cc1cc(-c2ccc(CN3CCCC3c3ccc(N(C)C)cc3)[nH]2)ccc1[N+](=O)[O-] (configuration not stated) | half-life [3]: 1.86 min |
| 80.2 µM |  | CN(C)c1ccc(C2COCCN2Cc2ccc(-c3ccc([N+](=O)[O-])cc3)[nH]2)cc1 (configuration not stated) |  |
| 14.8 µM |  | CCn1c(CN2CCCC2c2ccc(N(C)C)cc2)ccc1-c1ccc([N+](=O)[O-])cc1 (configuration not stated) |  |
| 12.8 µM |  | CN(C)c1ccc(C2CCCN2Cc2ccc(-c3ccc([N+](=O)[O-])c(C#N)c3)[nH]2)cc1 (configuration not stated) |  |
| > 100 µM |  | CN(C)c1ccc(C2CCCN2Cc2ccc(-c3ccc([N+](=O)[O-])c(C(=O)O)c3)[nH]2)cc1 (configuration not stated) |  |
| 33 µM |  | CN(C)c1ccc(C2CCCN2Cc2ccc(-c3ccc(C#N)cc3)[nH]2)cc1 (configuration not stated) |  |
